{
  "source": "paper PMC9936582",
  "about": "“Sulfamate Acetamides as Self-Immolative Electrophiles for Covalent Ligand-Directed Release Chemistry” (Journal of the American Chemical Society, 2023)",
  "key": {"Mino cells": {"tested_on": "Mino cells", "assay": "In situ proteomic labeling with alkyne probes, in-gel fluorescence", "assay_type": "cell-based", "conditions": "2 h, TAMRA-azide CuAAC", "source_text": "To assess proteomic selectivity in cells, we have synthesized two sulfamate acetamides (2a and 2b) and a chloroacetamide (2c) with an alkyne functionality (Figure 2A and Figure S8). We treated Mino cells for two hours with either DMSO or 2a–2c. We then lysed the cells, labeled the alkynes via copper-catalyzed “click chemistry” (CuAAC) with TAMRA-azide, and imaged the adducts via in-gel fluorescence (Figure 2C). Similar to their reactivity pattern in the GSH reactivity assay, these compounds labeled various amounts of proteins under cellular conditions.\nMino cells were cultured in RPMI-medium supplemented with 15% FBS and 1% p/s at 37 °C and 5% CO2. […] The cells were lysed with RIPA buffer (Sigma, R0278), and protein concentration was determined using BCA protein assay (Thermo Fisher Scientific, 23225). Lysates were then diluted to 2 mg/mL in PBS. Lysates were clicked to TAMRA-azide (Lumiprobe). “Click” reaction was performed using a final concentration of 40 μM TAMRA-azide, 3 mM CuSO4, 3 mM Tris(3-hydroxypropyltriazolylmethyl)amine (THPTA, Sigma), and 3.7 mM Sodium L-ascorbate (Sigma) in a final volume of 60 μL. The samples were subjected to precipitation.\nPrecipitation: 1× chloroform, 4× methanol, and 3× water were added to the samples and vortexed thoroughly. The samples were spun down for 10 min at 4 °C, 21,000g. […]"}, "[1]": {"assay": "Metabolic stability of sulfopin analogues in liver microsomes", "assay_type": "in vitro ADME", "experimental": "Next, we examined the buffer stability of the sulfopin sulfamate acetamides in PBS buffer (pH 8; 37 °C). Similar to the model compounds, the chloroacetamide (sulfopin) and sulfonate (4a) warheads show 30 and 15% hydrolysis after 2 days, respectively (Figure S26).\nFigure S27: Sulfopin sulfamates show high metabolic stability: Compounds (Sulfopin, 4d, and 4g) were incubated\nin liver microsomes and injected to LC/MS/MS at indicated time points. The peak intensities of the compounds were […]"}, "PATU-8988T cells": {"tested_on": "PATU-8988T cells", "assay": "Competitive isoDTB-ABPP in PATU-8988T cells", "assay_type": "cell-based, human", "design": "dose or concentration left out as unconfirmed", "conditions": "4 h", "experimental": "Using our previously reported sulfopin-DTB probe[38] (Figure S29A), we evaluated the cellular engagement of these compounds with Pin1 in OCI-AML2 cells. Compounds 4c, 4d, 4e, and 4g and sulfopin were incubated in OCI-AML2 cells (0.5 and 2.5 μM) followed by lysis and treatment with sulfopin-DTB (1 μM). The lysates were pulled down using streptavidin beads, and Pin1 was imaged by Western blot. […] At 0.5 μM, all of these compounds show only ∼30% Pin1 engagement. […] Both sulfopin and 4d labeled only six peptides with an H/L ratio of >2. […]\nThe preparation of IsoDTB-ABPP samples was performed essentially as described in Zanon et al.2.\nExperiments were conducted in quadruplicates. PATU cells were incubated for 2 h with 5 µM compounds Sulfopin or 3g (or with DMSO), and collected by centrifuge at 300 g for 5 min followed by ice cold PBS wash. For lysis, samples containing 10 million cells were dispersed in 0.5 mL of RIPA buffer (Sigma, R0278), incubated with occasional vortexing for 30 min on ice, followed by centrifugation at 21,000 g for 15 min. […]\nsample was diluted to 1.7 mg/mL using PBS. To each sample, 5 µL of 10 mM IA-alkyne was added, followed by 1 h incubation at room temperature in the dark. 10 µL of 5 mM DesThioTag was added (Light for the compound treated samples, heavy for the DMSO-treated samples), followed by 18 µL of CuSO4:THPTA (100 mM), and the click reaction was initiated by addition of 15 µL of 150 mM sodium ascorbate (freshly dissolved in water). The samples were incubated on a rotary shaker for 1 h at room temperature. The compound-treated and DMSO-treated samples were mixed with 4 mL methanol, 1 mL chloroform and 2 mL water on ice, vortexed and centriduged at 3200 g for 10 min at 4°C. The top layer was aspirated, and 3 mL methanol was added, followed by centrifugation and aspiration of the supernatant. The pellets were air dried and stored at -80°C until the following treatment. The pellets were resuspended in 0.3 mL of 8 M urea freshly dissolved in PBS using probe sonication (8 sec total at 40% amplitude, 1 sec on/2 sec off, at room temperature). Following the resuspension, the samples were diluted with 1 mL of PBS. Then each sample was mixed with 1.3 mL of slurry containing 110 µL of streptavidin agarose beads (Thermo Streptavidin Agarose cat # 20349), prewashed, and dispersed in 0.2% IGEPAL. The samples were incubated with rotation for 3 h at room temperature. The beads were pelleted by centrifugation at 2000 g for 2 min, transferred to spin columns, and washed 3 times with 0.1% IGEPAL/PBS, 3 times PBS, and 3 times water.\nThe beads were then suspended in 8 M Urea/50 mM ammonium bicarbonate, and 15 µL of 31 mg/mL DTT were added, followed by incubation at 37°C for 45 min. […]"}, "Pin1 [2]": {"target": "T1, Pin1 (Homo sapiens, UniProt Q13526)", "T1 construct": "The catalytic domain of Pin1 (2 μM) in […] and 75 mM NaCl (pH 7.5) was incubated; made in house", "T1 sequence (Q13526 52-163 limits assumed)": "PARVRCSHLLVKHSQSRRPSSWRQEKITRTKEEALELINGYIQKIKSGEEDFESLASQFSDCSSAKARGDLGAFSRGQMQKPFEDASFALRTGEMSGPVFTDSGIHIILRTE", "assay": "Determination of KI and Kinact for Pin1", "assay_type": "binding", "conditions": "Pin1 0.5 μM, 100 mM Tris buffer pH 7.4, 14 °C", "experimental": "intensities. Ratios that were above 20 or infinite (due to the sum being zero for the low intensities) were defined as 20. Intensities measured for different peptides containing the same modified cysteine were […]\nPin 1 (500 nM) was incubated at various concentrations of Sulfopin (0.5, 1, 2, 5, 20, 50, 100, 150, […]\nin 100 mM Tris buffer at pH 7.4. After the addition, the samples are put at 14 °C. The reaction mixtures, at various time points (indicated in the graph), were injected into the LC/MS. For data analysis, the raw spectra were deconvoluted using a 10000:30000 Da window and 1 Da resolution. The labeling percentage for a compound was determined as the labeling of a specific compound (alone or together with other compounds) divided by the overall detected protein species. The % of unlabelled Pin 1 was plotted against time and fitted to the pseudo-first-order reaction kinetics formula (Figure S24A & C). The obtained rate constants were fitted to the Michaelis-Menten-type saturation curve (Fig. S24B & D) to extrapolate kinact and KI."}, "Pin1 [3]": {"target": "T1, Pin1", "assay": "Intact protein MS labeling of Pin1", "assay_type": "binding", "conditions": "2 μM Pin1, 2 μM compound, pH 7.5, 1 h, 25 °C", "experimental": "Initially, we incubated these compounds (4a–4g; 2 μM) with Pin1 (2 μM; 50 mM Tris buffer; pH 7.5, 1 h; 25 °C) to check covalent labeling by intact protein MS (Figure 5B,C; Figure S23). Under these conditions, sulfopin labeled 59% as previously reported;[38] the sulfonate (4a) labeled 18%, whereas alkyl sulfamates (4b and 4c) labeled 16 and 56%, respectively. […] We have previously reported that replacing the tert-butyl group in sulfopin by a cyclohexyl increases the labeling along with intrinsic thiol reactivity. Compound 4g contains a cyclohexyl group instead of the tert-butyl and a phenyl sulfamate electrophile and was able to label >95% of Pin1 under these conditions.\nPin1 was expressed and purified as previously reported.[38] The catalytic domain of Pin1 (2 μM) in […] and 75 mM NaCl (pH 7.5) was incubated with 2 μM sulfopin sulfamate (4a–4g) for 1 h at 25 °C.\nThe reaction mixtures, at room temperature for various times, were injected into the LC/MS. For data analysis, the raw spectra were deconvoluted using a 20,000:40,000 Da (For Pin1, 10,000:30,000) window and 1 Da resolution. The labeling percentage for a compound was determined as the labeling of a specific compound (alone or together with other compounds) divided by the overall detected protein species."}, "[4]": {"assay": "DTNB thiol reactivity assay", "assay_type": "physicochemical", "experimental": "The compound 5,5′-dithio-bis(2-nitrobenzoic acid) (DTNB; 50 μM) was incubated with 200 μM tris(2-carboxyethyl)phosphine (TCEP) in 20 mM sodium phosphate buffer (pH 7.4) and 150 mM NaCl for 5 min at room temperature to obtain TNB^–2. […] UV absorbance was acquired every 15 min for 7 h. The assay was performed in a 384-well plate using a Tecan Spark 10 M plate reader. […] Compounds were measured in triplicate. The data were fitted to a second-order reaction equation such that the rate constant (K) is the slope of ln([A][B0]/[B][A0]), where [A0] and [B0] are the initial concentrations of the compound (200 μM) and TNB^–2 (100 μM), respectively, and [A] and [B] are the remaining concentrations as a function of time as deduced from spectrometric measurements. Linear regression using Prism was performed to fit the rate against the first 7 h of measurements."}, "Buffer stability assay": {"assay": "Buffer stability assay", "assay_type": "physicochemical", "description": "Reaction mixtures were kept at 37 °C with shaking. After 4 days (unless otherwise mentioned), 5 μL from the reaction mixture were injected into the LC/MS to check the stability of the compounds."}, "BTK [5]": {"target": "T2, BTK (Homo sapiens, UniProt Q06187)", "T2 sequence (Q06187 whole entry)": "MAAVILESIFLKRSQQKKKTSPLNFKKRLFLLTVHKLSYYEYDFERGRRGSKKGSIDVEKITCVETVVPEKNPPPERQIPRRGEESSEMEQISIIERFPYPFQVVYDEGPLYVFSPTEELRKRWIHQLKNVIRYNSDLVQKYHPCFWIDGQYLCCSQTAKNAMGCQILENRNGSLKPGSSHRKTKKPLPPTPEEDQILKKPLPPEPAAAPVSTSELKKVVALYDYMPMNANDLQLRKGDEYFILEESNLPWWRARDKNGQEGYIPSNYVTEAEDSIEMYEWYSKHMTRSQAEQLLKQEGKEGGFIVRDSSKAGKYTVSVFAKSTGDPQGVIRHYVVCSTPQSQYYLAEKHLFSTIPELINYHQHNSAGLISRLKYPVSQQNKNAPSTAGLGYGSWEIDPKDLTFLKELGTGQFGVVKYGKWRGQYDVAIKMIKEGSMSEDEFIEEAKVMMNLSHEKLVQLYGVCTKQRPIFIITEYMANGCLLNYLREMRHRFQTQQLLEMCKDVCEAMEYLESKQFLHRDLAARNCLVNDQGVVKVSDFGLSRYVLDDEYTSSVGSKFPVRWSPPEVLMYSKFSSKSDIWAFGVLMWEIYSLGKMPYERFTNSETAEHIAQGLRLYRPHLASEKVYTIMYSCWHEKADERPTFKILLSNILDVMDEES", "assay": "Cellular labeling profile of CoLDR probe in Mino cells, in-gel fluorescence", "assay_type": "cell-based", "design": "endogenous in cells; host or cells: Mino cells", "conditions": "2 h, 100 nM", "description": "In addition to the in vitro labeling of BTK by our probe, we also tested its engagement in cells. […] The samples were imaged via gel fluorescence. […] We conducted this cellular labeling experiment at higher concentrations to assess the saturation of BTK binding (Figure S33B).\nPrecipitation: 1× chloroform, 4× methanol, and 3× water were added to the samples and vortexed thoroughly. The samples were spun down for 10 min at 4 °C, 21,000g. The top layer was aspirated, and the pellet was resuspended in 4× methanol. The sample was vortexed and spun down again for 10 min at 4 °C, 21,000g, the solution was removed, and the pellet was dried for 2 min. The pellet was dissolved in 42 μL of PBS followed by a 14 μL of 4× sample buffer."}, "BTK [6]": {"target": "T2, BTK", "assay": "BTK activity (autophosphorylation) in Mino cells, Western blot", "assay_type": "cell-based", "design": "endogenous in cells; host or cells: Mino cells", "conditions": "anti-human IgM activation", "experimental": "To assess the cellular efficacy of these compounds, we followed the inhibition of BTK autophosphorylation in Mino cells. After 1 h of pre-incubation with the inhibitors and B-cell activation with an anti-IgM antibody, BTK autophosphorylation was followed by Western blot.\nThe cell pellets were subjected to immunoblotting, and Western blots were performed for p-BTK, BTK, and β-actin.\nCell pellets were washed with ice-cold PBS and lysed using RIPA buffer (Sigma, R0278). […] Samples containing 50 μg total protein were prepared with 4× LDS sample buffer (NuPAGE, Thermo Scientific, NP0007) and 20 mM DTT, which were then resolved on a 4–20% Bis–Tris gel (GeneScript SurePAGE, M00657). […] An EZ-ECL Kit (Biological Industries, 20-500-1000) was used to detect HRP activity."}, "[7]": {"assay": "GSH consumption assay (LC/MS)", "conditions": "100 μM compound, 5 mM GSH, same conditions as ibrutinib", "description": "A sample from the reaction mixture was injected to an LC/MS every hour, and we quantified the decrease in starting material over the course of the reaction.\nAll solvents were bubbled with argon. Reaction mixtures were kept at 10 °C. Every 1 h, 5 μL from the reaction mixture were injected into the LC/MS. The reaction was followed by the peak area of the electrophile normalized by the area of the 4-nitrocyano benzene (i.e., by the disappearance of the starting material). The natural logarithm of the results was fitted to linear regression, and t1/2 was calculated as t1/2 = ln 2/–slope."}, "[8]": {"conditions": "Q13526_C113 (Pin1 Cys113), text: PATU-8988T cells"}},
  "data": [
    {"smiles": "C#Cc1ccc(NC(=O)CCl)cc1", "note": "[2c]", "values": [
      {"measurement": "proteins labeled under cellular conditions", "setting": "Mino cells", "value": "labeled the highest number of proteins"}
    ]},
    {"smiles": "CC(C)(C)CN(C(=O)COS(=O)(=O)Nc1ccccc1)C1CCS(=O)(=O)C1", "note": "(stereo not drawn) [4d]", "values": [
      {"measurement": "metabolic stability (in words)", "setting": "[1]", "value": "good metabolic stability"},
      {"measurement": "isoDTB-ABPP H/L Ratio", "setting": "PATU-8988T cells; [8]", "value": 3.057},
      {"measurement": "isoDTB-ABPP H/L Ratio", "setting": "PATU-8988T cells; Q15149_C4494, text: PATU-8988T cells", "value": 2.693},
      {"measurement": "Ki", "setting": "Pin1 [2]", "value": 43.6, "unit": "µM"},
      {"measurement": "labeling of Pin1", "setting": "Pin1 [3]", "value": "> 90", "unit": "%"},
      {"measurement": "thiol reactivity compared to sulfopin", "setting": "[4]", "value": "lower thiol reactivity than sulfopin"}
    ]},
    {"smiles": "CC(C)(C)CN(C(=O)CCl)C1CCS(=O)(=O)C1", "note": "(stereo not drawn) [sulfopin, reference compound]", "values": [
      {"measurement": "metabolic stability (in words)", "setting": "[1]", "value": "good metabolic stability"},
      {"measurement": "isoDTB-ABPP H/L Ratio", "setting": "PATU-8988T cells; P18031_C32, text: PATU-8988T cells", "value": 2.941},
      {"measurement": "isoDTB-ABPP H/L Ratio", "setting": "PATU-8988T cells; [8]", "value": 11.8257},
      {"measurement": "Ki", "setting": "Pin1 [2]", "value": 217, "unit": "µM"},
      {"measurement": "hydrolysis (buffer stability, sulfopin analogues)", "setting": "Buffer stability assay; 200 μM, PBS buffer pH 8, 37 °C for four days", "value": 30, "unit": "%"},
      {"measurement": "hydrolysis (buffer stability, sulfopin analogues)", "setting": "Buffer stability assay; PBS buffer pH 8, 37 °C, after 2 days", "value": 30, "unit": "%"},
      {"measurement": "labeling of Pin1", "setting": "Pin1 [3]", "value": 59, "unit": "%"}
    ]},
    {"smiles": "C#CCOS(=O)(=O)N1CCC[C@@H](n2nc(-c3ccc(Oc4ccccc4)cc3)c3c(N)ncnc32)C1", "note": "[3j]", "values": [
      {"measurement": "apparent off-targets that ibrutinib did not compete", "setting": "BTK [5]", "value": "three"},
      {"measurement": "BTK labeling in cells (in words)", "setting": "BTK [5]; TAMRA-azide", "value": "showed BTK labeling"},
      {"measurement": "BTK autophosphorylation / activity after treatment (in words)", "setting": "BTK [6]", "value": "BTK remained active"},
      {"measurement": "reaction with GSH (in words)", "setting": "[7]", "value": "did not undergo any reaction with GSH"}
    ]}
  ]
}
